These results are taken from patent US7560458B2, “Triazolopyrimidine derivatives as glycogen synthase kinase 3 inhibitors” (Janssen Pharmaceutica, N.V., priority 2003, dated 2009).

Bounds are passed on as bounds.

One assay concerns the target GSK3alpha (Homo sapiens, UniProt P49840). Nature of the assay: GSK3alpha assay (same as the GSK3beta assay, GSK3alpha 0.25 ng/μl). It counts as biochemical. The conditions noted are these: −log IC50 (M); given as ranges (>8; 7-8; <7); read-out: pIC50 (GSK3alpha) (converted). The protocol: (§1) GSK3beta assays were performed at room temperature in a 100 μl reaction volume of 25 mM Tris (ph 7.4) containing 10 mM MgCl2.6H2O 1 mM DTT, 0.1 mg/ml BSA, 5% glyceol and containing 5.7 ng/μl GSK3β, 5 μM biotinylated phosphorylated CREB peptide, 1 μM APT, 0.85 μCi/ml ATP-P^33 and a suitable amount of a test compound of formula (I). After one hour, the reaction was terminated by adding 70 μl of Stop mix (0.1 mM APT, 5 mg/ml streptavidin coated PVT SPA bead pH 11.0). The beads to which the phosphorylated CREB peptide is attached were allowed to settle overnight and the radioactivity of the beads was counted in a microtiterplate scintillation counter and compared with the results obtained in a control experiment (without the presence of a test compound) in order to determine the percentage of GSK3β inhibition. The IC50 value, i.e. the concentration (M) of the test compound at which 50% of GSK3β is inhibited, was calculated from the dose response curve obtained by performing the above-described GSKK3β assay in the presence of different amounts of the test compound.
The GSK3alpha assay was performed in the same way as described above for the GSK3beta assay except for the concentration of GSK3alpha which is 0.25 ng/μl.

A further assay has as its target GSK3β (Homo sapiens, UniProt P49841). Nature of the assay: GSK3beta assay (SPA, biotinylated phosphorylated CREB peptide, ATP-P33). It counts as biochemical. As to conditions: −log IC50 (M); given as ranges (>8; 7-8; <7); read-out: pIC50 (GSK3beta) (converted). The protocol:
as §1

Chain of GSK3β (P49841 whole entry, species assumed): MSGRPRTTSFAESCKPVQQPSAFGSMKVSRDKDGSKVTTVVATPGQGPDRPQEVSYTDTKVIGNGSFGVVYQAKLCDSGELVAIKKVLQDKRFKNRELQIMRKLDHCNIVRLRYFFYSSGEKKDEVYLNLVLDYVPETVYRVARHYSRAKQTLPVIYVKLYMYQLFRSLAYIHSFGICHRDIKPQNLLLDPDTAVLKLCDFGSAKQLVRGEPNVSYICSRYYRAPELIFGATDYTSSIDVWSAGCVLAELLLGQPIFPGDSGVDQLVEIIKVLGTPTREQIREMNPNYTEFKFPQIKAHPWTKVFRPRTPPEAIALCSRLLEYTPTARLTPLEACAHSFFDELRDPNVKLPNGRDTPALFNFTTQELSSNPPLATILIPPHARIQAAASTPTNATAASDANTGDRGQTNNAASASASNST
Chain of GSK3alpha (P49840 whole entry, species assumed): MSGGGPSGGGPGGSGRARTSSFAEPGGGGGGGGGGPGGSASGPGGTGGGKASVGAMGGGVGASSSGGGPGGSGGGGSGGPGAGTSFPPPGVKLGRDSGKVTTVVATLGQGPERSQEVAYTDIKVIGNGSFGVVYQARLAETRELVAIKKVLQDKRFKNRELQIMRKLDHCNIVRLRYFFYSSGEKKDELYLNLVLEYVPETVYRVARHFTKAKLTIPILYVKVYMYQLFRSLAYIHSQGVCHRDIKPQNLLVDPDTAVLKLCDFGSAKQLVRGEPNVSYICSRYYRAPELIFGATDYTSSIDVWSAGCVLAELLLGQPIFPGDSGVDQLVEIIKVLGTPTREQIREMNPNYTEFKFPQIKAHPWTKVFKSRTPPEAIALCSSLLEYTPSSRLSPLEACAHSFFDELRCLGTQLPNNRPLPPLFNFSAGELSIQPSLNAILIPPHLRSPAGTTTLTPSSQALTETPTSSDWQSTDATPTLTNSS

Turning to `Cn1ccnc1-c1cccc(-n2nnc3cnc(Nc4cccc(C#N)c4)nc32)c1` [Compound 4], the IC50 is 1e-08 to 1e-07 M at GSK3alpha and less than 1e-08 M at GSK3β.

As for `CC(=O)Nc1cccc(Nc2ncc3nnn(-c4cccc(F)c4)c3n2)c1` [Compound 11], the IC50 on GSK3alpha and at GSK3β was less than 1e-08 M in each case.

For `Nc1cccc(Nc2ncc3nnn(-c4cccc(F)c4)c3n2)c1` [Compound 12], the results for the IC50 at GSK3alpha and on GSK3β were 1e-08 to 1e-07 M and less than 1e-08 M, respectively.

Take `COC(=O)c1cccc(Nc2ncc3nnn(-c4cccc(F)c4)c3n2)c1` [Compound 13]: on GSK3β, the IC50 is 1e-08 to 1e-07 M.

For `Cc1cccc(Nc2ncc3nnn(-c4cccc(F)c4)c3n2)c1` [Compound 14], the IC50 at GSK3alpha was less than 1e-08 M; at GSK3β, 1e-08 to 1e-07 M.

Regarding `Oc1cccc(Nc2ncc3nnn(-c4cccc(F)c4)c3n2)c1` [Compound 15], the IC50 was less than 1e-08 M at GSK3alpha and 1e-08 M on GSK3β.

Turning to `Fc1cccc(Nc2ncc3nnn(-c4cccc(F)c4)c3n2)c1` [Compound 17], the IC50 at GSK3alpha was less than 1e-08 M; on GSK3β, 1e-08 to 1e-07 M.

As for `N#CSc1ccc(Nc2ncc3nnn(-c4cccc(F)c4)c3n2)cc1` [Compound 18], the IC50 on GSK3alpha and at GSK3β was 1e-08 to 1e-07 M in each case.

As to `Fc1cccc(-n2nnc3cnc(Nc4ccc(OC(F)F)cc4)nc32)c1` [Compound 19], the IC50 was less than 1e-08 M at GSK3alpha and 1e-08 to 1e-07 M on GSK3β.

For `N#CCc1ccc(Nc2ncc3nnn(-c4cccc(F)c4)c3n2)cc1` [Compound 20], the IC50 is less than 1e-08 M at GSK3alpha and 1e-08 to 1e-07 M on GSK3β.

Take `Cc1ccc(Nc2ncc3nnn(-c4cccc(F)c4)c3n2)cc1O` [Compound 21]: the IC50 at GSK3alpha and on GSK3β was less than 1e-08 M each time.

For the molecule `Fc1cccc(-n2nnc3cnc(Nc4cccc(OC(F)(F)F)c4)nc32)c1` [Compound 22], the IC50 at GSK3alpha and at GSK3β was less than 1e-08 M throughout.

`CCOc1cccc(Nc2ncc3nnn(-c4cccc(F)c4)c3n2)c1` [Compound 23]: the IC50 at GSK3alpha and on GSK3β was less than 1e-08 M each time.

For `CNC(=O)c1cccc(Nc2ncc3nnn(-c4cccc(F)c4)c3n2)c1` [Compound 24], the IC50 on GSK3alpha and on GSK3β was less than 1e-08 M throughout.

On to `O=C(O)Cc1cccc(Nc2ncc3nnn(-c4cccc(F)c4)c3n2)c1` [Compound 25], for which the figures for the IC50 on GSK3alpha and at GSK3β were less than 1e-08 M and 1e-08 to 1e-07 M, respectively.

With `O=C(O)c1cccc(Nc2ncc3nnn(-c4cccc(F)c4)c3n2)c1` [Compound 29], the IC50 is less than 1e-08 M on GSK3alpha and 1e-08 to 1e-07 M on GSK3β.

As for `O=C(O)c1ccc(Nc2ncc3nnn(-c4cccc(F)c4)c3n2)cc1` [Compound 30], the IC50 on GSK3alpha and on GSK3β was less than 1e-08 M each time.

As to `OCc1cccc(Nc2ncc3nnn(-c4cccc(F)c4)c3n2)c1` [Compound 31], the IC50 on GSK3alpha and on GSK3β was less than 1e-08 M each time.

As for `Fc1cccc(-n2nnc3cnc(Nc4ccc(Cl)nc4)nc32)c1` [Compound 32], the IC50 at GSK3alpha and at GSK3β was less than 1e-08 M in each case.

Regarding `N#Cc1cccc(Nc2ncc3nnn(-c4cccc(Br)c4)c3n2)c1` [Compound 33], the IC50 on GSK3alpha and on GSK3β was less than 1e-08 M throughout.

Turning to `N#Cc1cccc(Nc2ncc3nnn(-c4ccccc4)c3n2)c1` [Compound 34], the IC50 on GSK3alpha and at GSK3β was less than 1e-08 M throughout.

Turning to `COc1cccc(-n2nnc3cnc(Nc4cccc(S(N)(=O)=O)c4)nc32)c1` [Compound 35], the IC50 on GSK3alpha and at GSK3β was less than 1e-08 M throughout.

In the case of `NS(=O)(=O)c1cccc(Nc2ncc3nnn(-c4cccc(CO)c4)c3n2)c1` [Compound 36], the IC50 on GSK3alpha and on GSK3β was less than 1e-08 M throughout.

Regarding `NS(=O)(=O)c1ccc(Nc2ncc3nnn(-c4ccccc4)c3n2)cc1` [Compound 37], the IC50 on GSK3alpha and on GSK3β was less than 1e-08 M in each case.

On to `NC(=O)c1cccc(Nc2ncc3nnn(-c4ccccc4)c3n2)c1` [Compound 38], for which the IC50 at GSK3alpha and on GSK3β was less than 1e-08 M each time.

As to `NC(=O)c1cccc(Nc2ncc3nnn(-c4cccc(C(N)=O)c4)c3n2)c1` [Compound 39], the IC50 on GSK3alpha and on GSK3β was less than 1e-08 M throughout.

As to `COc1cccc(-n2nnc3cnc(Nc4cccc(NC(C)=O)c4)nc32)c1` [Compound 42], the IC50 on GSK3alpha and at GSK3β was less than 1e-08 M throughout.

As to `COc1cccc(-n2nnc3cnc(Nc4cccc(C(C)O)c4)nc32)c1` (stereo not shown) [Compound 43], the IC50 at GSK3alpha and at GSK3β was less than 1e-08 M throughout.

In the case of `CS(=O)(=O)c1cccc(Nc2ncc3nnn(-c4cccc(F)c4)c3n2)c1` [Compound 44], the IC50 at GSK3alpha and at GSK3β was less than 1e-08 M throughout.

For `CS(=O)(=O)Nc1cccc(Nc2ncc3nnn(-c4cccc(F)c4)c3n2)c1` [Compound 45], the IC50 on GSK3alpha and on GSK3β was less than 1e-08 M each time.

Turning to `COc1ccc(Nc2ncc3nnn(-c4ccccc4)c3n2)cn1` [Compound 47], the IC50 on GSK3alpha and on GSK3β was less than 1e-08 M in each case.

Regarding `COc1cccc(-n2nnc3cnc(Nc4cccc(C(C)=O)c4)nc32)c1` [Compound 51], the IC50 at GSK3alpha and at GSK3β was less than 1e-08 M throughout.

On to `COc1cccc(-n2nnc3cnc(Nc4cccc(NS(C)(=O)=O)c4)nc32)c1` [Compound 52], for which the IC50 on GSK3alpha and at GSK3β was less than 1e-08 M each time.

Take `COc1cccc(-n2nnc3cnc(Nc4cccc(S(C)(=O)=O)c4)nc32)c1` [Compound 53]: the IC50 on GSK3alpha and at GSK3β was less than 1e-08 M throughout.

With `OCc1cccc(Nc2ncc3nnn(-c4cccc(CO)c4)c3n2)c1` [Compound 54], the IC50 at GSK3alpha and on GSK3β was less than 1e-08 M each time.

On to `COCc1cccc(Nc2ncc3nnn(-c4cccc(F)c4)c3n2)c1` [Compound 56], for which the IC50 at GSK3alpha and on GSK3β was less than 1e-08 M in each case.

On to `CS(=O)(=O)Nc1cccc(Nc2ncc3nnn(-c4cccc(S(N)(=O)=O)c4)c3n2)c1` [Compound 58], for which the IC50 on GSK3alpha and at GSK3β was less than 1e-08 M throughout.

Turning to `CC(=O)Nc1cccc(Nc2ncc3nnn(-c4ccccc4)c3n2)c1` [Compound 59], the IC50 at GSK3alpha and on GSK3β was less than 1e-08 M in each case.

With `CC(=O)c1cccc(Nc2ncc3nnn(-c4ccccc4)c3n2)c1` [Compound 60], the IC50 on GSK3alpha and at GSK3β was less than 1e-08 M each time.

With `COCc1cccc(Nc2ncc3nnn(-c4ccccc4)c3n2)c1` [Compound 61], the IC50 on GSK3alpha and on GSK3β was less than 1e-08 M each time.

Take `CS(=O)(=O)Nc1cccc(Nc2ncc3nnn(-c4cccc(CO)c4)c3n2)c1` [Compound 62]: the IC50 on GSK3alpha and at GSK3β was less than 1e-08 M in each case.

On to `CC(=O)Nc1cccc(Nc2ncc3nnn(-c4cccc(S(N)(=O)=O)c4)c3n2)c1` [Compound 63], for which the IC50 at GSK3alpha and on GSK3β was less than 1e-08 M throughout.

Turning to `CC(=O)c1cccc(Nc2ncc3nnn(-c4cccc(S(N)(=O)=O)c4)c3n2)c1` [Compound 64], the IC50 on GSK3alpha and at GSK3β was less than 1e-08 M throughout.

As for `COc1cccc(-n2nnc3cnc(Nc4cccc(C(=O)O)c4)nc32)c1` [Compound 66], the IC50 at GSK3alpha and on GSK3β was 1e-08 to 1e-07 M throughout.

For the molecule `O=C(O)c1cccc(Nc2ncc3nnn(-c4cccc(CO)c4)c3n2)c1` [Compound 68], on GSK3alpha, the IC50 was 1e-08 to 1e-07 M.

For the molecule `O=C(O)c1cc(Nc2ncc3nnn(-c4cccc(F)c4)c3n2)ccc1Cl` [Compound 70], the IC50 on GSK3alpha is 1e-08 to 1e-07 M.

As for `O=C(O)c1cc(Nc2ncc3nnn(-c4cccc(F)c4)c3n2)ccc1O` [Compound 71], the figures for the IC50 at GSK3alpha and at GSK3β were less than 1e-08 M and 1e-08 to 1e-07 M, respectively.

As to `COc1cccc(-n2nnc3cnc(Nc4ccc(O)c(C(=O)O)c4)nc32)c1` [Compound 72], the IC50 at GSK3alpha was less than 1e-08 M; at GSK3β it was 1e-08 to 1e-07 M.

`CC(=O)NCc1cccc(Nc2ncc3nnn(-c4cccc(F)c4)c3n2)c1` [Compound 73]: the IC50 at GSK3alpha and at GSK3β was less than 1e-08 M each time.

Take `COC(=O)c1cccc(-n2nnc3cnc(Nc4cccc(CNC(C)=O)c4)nc32)c1` [Compound 74]: the IC50 was less than 1e-08 M on GSK3alpha and 1e-08 M at GSK3β.

`CC(=O)NCc1cccc(Nc2ncc3nnn(-c4ccccc4)c3n2)c1` [Compound 75]: the IC50 on GSK3alpha was less than 1e-08 M; on GSK3β, 1e-08 to 1e-07 M.

Turning to `O=S(=O)(CCO)c1cccc(Nc2ncc3nnn(-c4cccc(F)c4)c3n2)c1` [Compound 77], the IC50 at GSK3alpha and on GSK3β was less than 1e-08 M throughout.

On to `NCc1cccc(Nc2ncc3nnn(-c4ccccc4)c3n2)c1` [Compound 78], for which the IC50 at GSK3alpha and at GSK3β was 1e-08 to 1e-07 M in each case.

Consider `NCc1cccc(Nc2ncc3nnn(-c4cccc(F)c4)c3n2)c1` [Compound 79], for which the IC50 on GSK3alpha and on GSK3β was 1e-08 to 1e-07 M each time.

Take `COCc1cccc(-n2nnc3cnc(Nc4cccc(CNC(C)=O)c4)nc32)c1` [Compound 80]: the IC50 on GSK3alpha and on GSK3β was less than 1e-08 M in each case.

Regarding `O=C(O)Cc1cccc(-n2nnc3cnc(Nc4cccc(C(=O)NCCO)c4)nc32)c1` [Compound 177], the IC50 on GSK3alpha is 1e-08 to 1e-07 M.

Consider `COCCOCc1cccc(-n2nnc3cnc(Nc4cccc(C#N)c4)nc32)c1` [Compound 290], for which the IC50 at GSK3β was less than 1e-08 M.
